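Following 48 hours of exposure in 96-well plates, responses at five concentrations were used to interpolate endpoints linearly. GI50 marks 50% less growth.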 Calls of active or inactive are those of the source. No stated cut-off is given here; in the data, active = GI50 up to about 1.1 µM and inactive = higher.
Tests used:
Assay in all cases: NCI-60 cell line screen, 48 h
CCRF-CEM = test system: CCRF-CEM
M14 = test system: M14
UO-31 = test system: UO-31
HCT-15 = test system: HCT-15
NCI-H460 = test system: NCI-H460
SNB-78 = test system: SNB-78
M19-MEL = test system: M19-MEL
KM-20L2 = test system: KM-20L2
SNB-75 = test system: SNB-75
Malme-3M = test system: Malme-3M
COLO 205 = test system: COLO 205
A498 = test system: A498
SK-MEL-5 = test system: SK-MEL-5
NCI/ADR-RES = test system: NCI/ADR-RES
MDA-MB-435 = test system: MDA-MB-435
PC-3 = test system: PC-3
MDA-N = test system: MDA-N
T47D = test system: T47D
DU-145 = test system: DU-145

SMILES	GI50 (CCRF-CEM)	GI50 (M14)	GI50 (UO-31)	GI50 (HCT-15) [µM]	GI50 (NCI-H460)	GI50 (SNB-78)	GI50 (M19-MEL)	GI50 (KM-20L2)	GI50 (SNB-75)	GI50 (Malme-3M)	GI50 (COLO 205)	GI50 (A498)	GI50 (SK-MEL-5)	GI50 (NCI/ADR-RES)	GI50 (MDA-MB-435)	GI50 (PC-3)	GI50 (MDA-N)	GI50 (T47D)	GI50 (DU-145)
Cn1cc(-c2ccc3c4ccccc4n(C)c3c2)c2ccccc21	> 100 µM (inactive)	> 100 µM (inactive)	> 100 µM (inactive)	36.6	> 100 µM (inactive)	> 100 µM (inactive)	> 100 µM (inactive)	> 100 µM (inactive)	> 100 µM (inactive)	> 100 µM (inactive)	> 100 µM (inactive)	> 100 µM (inactive)	> 100 µM (inactive)						
CCOC(=O)CSc1cc[nH]c(=O)n1	> 100 µM (inactive)	> 100 µM (inactive)	> 100 µM (inactive)	> 100	> 100 µM (inactive)	> 100 µM (inactive)	> 100 µM (inactive)	> 100 µM (inactive)	> 100 µM (inactive)	> 100 µM (inactive)	> 100 µM (inactive)	> 100 µM (inactive)	> 100 µM (inactive)						
CC(=O)OC1COC(n2c(=S)n(-c3ccccc3)c(=O)c3cc(Br)ccc32)C(OC(C)=O)C1OC(C)=O (stereo not drawn)	> 100 µM (inactive)	30.8 µM (inactive)	> 100 µM (inactive)	> 100	65.2 µM (inactive)	29 µM (inactive)	53.6 µM (inactive)	> 100 µM (inactive)	7.11 µM (inactive)	35.4 µM (inactive)	> 100 µM (inactive)	49.4 µM (inactive)	54.8 µM (inactive)						
CCCCCCCCCCCc1noc2c1C(=O)C(O)CC2 (stereo not drawn)	25.1 µM (inactive)	27.2 µM (inactive)	23.3 µM (inactive)	20.7	20 µM (inactive)	24.4 µM (inactive)		17.2 µM (inactive)	24.1 µM (inactive)		30.5 µM (inactive)	34.9 µM (inactive)	14.6 µM (inactive)						
COc1ccc(/C=N/C23CC4CC(CC(C4)C2)C3)cc1	> 100 µM (inactive)	> 100 µM (inactive)	> 100 µM (inactive)	> 100	> 100 µM (inactive)	> 100 µM (inactive)	> 10 µM (inactive)	> 100 µM (inactive)	> 100 µM (inactive)	> 100 µM (inactive)	> 10 µM (inactive)	> 100 µM (inactive)	> 100 µM (inactive)						
NS(=O)(=O)c1cc(C(=O)O)c(Cl)c([N+](=O)[O-])c1Cl	> 100 µM (inactive)	> 100 µM (inactive)	> 100 µM (inactive)	> 100	> 100 µM (inactive)				> 100 µM (inactive)	> 100 µM (inactive)	> 100 µM (inactive)	> 100 µM (inactive)	> 100 µM (inactive)	> 100 µM (inactive)	> 100 µM (inactive)	> 100 µM (inactive)	> 100 µM (inactive)	> 100 µM (inactive)	> 100 µM (inactive)
CCSc1c2cc(OC)ccc2nc2ccc(OC)cc12	5.56 µM (inactive)	11.9 µM (inactive)	12.6 µM (inactive)	8.34	13.2 µM (inactive)				6.73 µM (inactive)	13.7 µM (inactive)	7.26 µM (inactive)	9.4 µM (inactive)	6.65 µM (inactive)	12.1 µM (inactive)	5.13 µM (inactive)	10.7 µM (inactive)	5.24 µM (inactive)	8.87 µM (inactive)	18.2 µM (inactive)
COC(=O)c1c(C)[nH]c2c1cc(O)c1nc(C)c(C)nc12	> 100 µM (inactive)	> 100 µM (inactive)	> 100 µM (inactive)	> 100	> 100 µM (inactive)				19.5 µM (inactive)	> 100 µM (inactive)	> 100 µM (inactive)	14.8 µM (inactive)	48.5 µM (inactive)	> 100 µM (inactive)	> 100 µM (inactive)	23.2 µM (inactive)	> 100 µM (inactive)	47.3 µM (inactive)	> 100 µM (inactive)
C#C[C@]1(O)CC[C@H]2[C@@H]3CCC4=C/C(=N\OCCN5CCCCC5)CC[C@]4(C)[C@H]3CC[C@@]21C	4.54 µM (inactive)	3.27 µM (inactive)	4.23 µM (inactive)	7.31	6.78 µM (inactive)				4.3 µM (inactive)	8.79 µM (inactive)	2.12 µM (inactive)	6.15 µM (inactive)	2.23 µM (inactive)	3.52 µM (inactive)	2.24 µM (inactive)	3.39 µM (inactive)	1.66 µM (inactive)	2.69 µM (inactive)	8.51 µM (inactive)
CCCCCCCCSC1=C(Cl)C(=O)C(OC)=C(OC)C1=O	5.68 µM (inactive)	2.16 µM (inactive)	12.1 µM (inactive)	6.34	15.4 µM (inactive)				19.1 µM (inactive)	7.73 µM (inactive)	17.1 µM (inactive)	12.3 µM (inactive)	4.74 µM (inactive)	17.4 µM (inactive)	4.45 µM (inactive)	14.2 µM (inactive)	3.82 µM (inactive)	5.08 µM (inactive)	15.1 µM (inactive)
C=CCOC1=C(OC(C)=O)C(C2COC(C)(C)O2)OC1=O (stereo not drawn)	17.4 µM (inactive)	21.2 µM (inactive)	18.6 µM (inactive)	16.3	22 µM (inactive)				71.3 µM (inactive)	18.8 µM (inactive)	20 µM (inactive)	> 100 µM (inactive)	16.9 µM (inactive)	31.5 µM (inactive)	21.9 µM (inactive)	70 µM (inactive)	29.7 µM (inactive)	18.5 µM (inactive)	36.6 µM (inactive)
Cn1c(O)c(C2=Nc3ccccc3C2=O)c2ccccc21	> 100 µM (inactive)	> 100 µM (inactive)	> 100 µM (inactive)	> 100	> 100 µM (inactive)				> 100 µM (inactive)	> 100 µM (inactive)	> 100 µM (inactive)	> 100 µM (inactive)	> 100 µM (inactive)	> 100 µM (inactive)	> 100 µM (inactive)	> 100 µM (inactive)	> 100 µM (inactive)	> 100 µM (inactive)	> 100 µM (inactive)
CCOC1=NC(C(F)(F)F)(C(F)(F)F)N=C(/N=C(/N)N(C)C(C(C)C)P(=O)(OC(C)C)OC(C)C)O1 (stereo not drawn)	23.8 µM (inactive)	> 100 µM (inactive)	> 100 µM (inactive)	58.7	> 100 µM (inactive)				44.8 µM (inactive)	54.1 µM (inactive)	> 100 µM (inactive)	> 100 µM (inactive)	59.8 µM (inactive)	31.3 µM (inactive)	> 100 µM (inactive)	> 100 µM (inactive)	> 100 µM (inactive)	52.7 µM (inactive)	> 100 µM (inactive)
Cc1cc2nc3c(N)nn(CCN(C)C)c3nc2cc1C	42.3 µM (inactive)	61.2 µM (inactive)	29 µM (inactive)	36.4	32.8 µM (inactive)				27.4 µM (inactive)	34.2 µM (inactive)	28.1 µM (inactive)	38.3 µM (inactive)	24.6 µM (inactive)	33.3 µM (inactive)	37.9 µM (inactive)	44.3 µM (inactive)	50.8 µM (inactive)	42.3 µM (inactive)	40.8 µM (inactive)
CC(=O)O[C@H]1[C@@H](N2CCOCC2)C[C@H]2[C@@H]3CC=C4C[C@@H](N5CCCC5)CC[C@]4(C)[C@H]3CC[C@@]21C	> 100 µM (inactive)	35.4 µM (inactive)	> 100 µM (inactive)	> 100	> 100 µM (inactive)				> 100 µM (inactive)	> 100 µM (inactive)	> 100 µM (inactive)	> 100 µM (inactive)	> 100 µM (inactive)	> 100 µM (inactive)	> 100 µM (inactive)	> 100 µM (inactive)	> 100 µM (inactive)	> 100 µM (inactive)	> 100 µM (inactive)
BrC1=CCC23CC=C(Br)[C@H]4CC2(COC3)C[C@@H]1O4 (stereo partly drawn)	24.4 µM (inactive)	> 100 µM (inactive)	28.2 µM (inactive)	47.9	48 µM (inactive)	35.2 µM (inactive)	> 100 µM (inactive)	59.3 µM (inactive)	20.1 µM (inactive)	> 100 µM (inactive)	> 100 µM (inactive)		> 100 µM (inactive)						
COc1cccc(-c2cc(=O)c3cc(N4CCCCC4)ccc3[nH]2)c1	< 0.01 µM (active)	< 0.0132 µM (active)	7.29 µM (inactive)	< 0.0167	< 0.0199 µM (active)				0.6 µM (active)	13.7 µM (inactive)	< 0.0139 µM (active)	0.0188 µM (active)	< 0.01 µM (active)	0.02 µM (active)	< 0.01 µM (active)	< 0.0129 µM (active)	< 0.01 µM (active)	> 100 µM (inactive)	0.0622 µM (active)
CC[S+]1C2=C(CC(C)(C)CC2=O)[N-]c2ccccc21 (stereo not drawn)	> 100 µM (inactive)	> 100 µM (inactive)	> 100 µM (inactive)	> 100	> 100 µM (inactive)				> 100 µM (inactive)	> 100 µM (inactive)	> 100 µM (inactive)	> 100 µM (inactive)	> 100 µM (inactive)	> 100 µM (inactive)	> 100 µM (inactive)	> 100 µM (inactive)	> 100 µM (inactive)	> 100 µM (inactive)	> 100 µM (inactive)
CC(C)(C)OC(=O)NCC(=O)N(CCc1ccc(Cl)c(Cl)c1)CCN1CCCC1	10.6 µM (inactive)	14.3 µM (inactive)	14.6 µM (inactive)	17.7	15.8 µM (inactive)				17.5 µM (inactive)	19.8 µM (inactive)	13.6 µM (inactive)	17.8 µM (inactive)	13.7 µM (inactive)	15.3 µM (inactive)	13.9 µM (inactive)	15.3 µM (inactive)	14.3 µM (inactive)	22.7 µM (inactive)	16.9 µM (inactive)

From ChEMBL document CHEMBL1201862, “PubChem BioAssay data set” (2004)
